From patent publication US12458630B2, “Combination therapy for cancer” (The Regents of the University of California, priority 2020, dated 2025)

What was measured:
KC6141 mouse PDAC cells = assay: Cell viability assay (CCK-8); assay type: cell-based; conditions: 3 days; for cell viability vs vehicle: WT, Ikkα-KD, Nhe1-KD, Ikkα-KD;Nhe1-KD KC6141 cells
Method: Extracellular Matrix (ECM) Preparation. Skin fibroblasts were seeded on 6/12/96-well plates. One day after plating, cells were switched into DMEM (with pyruvate) with 10% dialysed FBS supplemented with or without 500 μM ^3H-proline and 100 μM Vitamin C. Cells were cultured for 6 days with media renewal every 24 h. After six days, skin fibroblasts were removed by washing in 1 ml or 500 μl or 100 μl per well PBS with 0.5% (v/v) Triton X-100 and 20 mM NH4OH. ECM was washed five times with PBS before plating KC6141 cells. The following day, KC6141 cells were switched into the indicated medium for 24 or 72 hrs.
Cell viability assay. Cell viability was determined with Cell Counting Kit-8 assay (CCK-8 assay kit, Glpbio). Cells were plated in 96-well plates at a density of 3000 cells (MIA PaCa-2) or 1500 cells (KC6141) per well and incubated overnight prior to treatment. EIPA (10 μM), MRT68921 (600 nM) or erlotinib (2 μM, Sigma) were added to the wells for 72 and 96 hrs. Next, 10 μL of CCK-8 was added to each well. The optical density was read at 450 nm using a microplate reader (FilterMax F5, Molecular Devices, USA) at day 0, 1, 2, 3, and 4. For glutamine-deprivation assays, cells in 96-well plates were rinsed briefly in PBS and incubated in the 0.2 mM glutamine. Glutamine-free DMEM medium was supplemented with 0.2 mM glutamine in the presence of 10% dialysed FBS and 25 mM HEPES. For some conditions, the medium was supplemented with a final concentration of 2% BSA (Fraction V, fatty-acid-, nuclease and protease-free, Calbiochem). For all experiments, media were replaced every 24 hrs. Viable cell counts were obtained using CCK-8 assay described as above.
In some embodiments, cells were plated in 96-well plates coated with or without ECM at a density of 3000 cells (MIA PaCa-2, 1444, 1305, COLO 357/FG) or 1500 cells (KC6141) per well and incubated overnight prior to treatment. EIPA (10.5 μM), IPI549 (600 nM), MBQ-167 (500 nM), MRT68921 (600 nM) or erlotinib (2 μM, Sigma), ML385 (10 μM, Sigma), HCQ (10 μM or 80 μM) or their combinations were added to the wells for 24, 72 or 96 hrs. Next, 10 μL of CCK-8 was added to each well. The optical density was read at 450 nm using a microplate reader (FilterMax F5, Molecular Devices, USA) at day 0, 1, 2, 3, and 4. For glutamine-deprivation assays, cells in 96-well plates were rinsed briefly in PBS and incubated in the 0.2 mM glutamine. Glutamine-free DMEM medium was supplemented with 0.2 mM glutamine in the presence of 10% dialyzed FBS and 25 mM HEPES. For glucose-deprivation assays, cells in 96-well plates were rinsed briefly in PBS and incubated in the 0.5 mM glucose. Glucose-free DMEM medium was supplemented with 0.5 mM glucose in the presence of 10% dialyzed FBS and 25 mM HEPES. For some conditions, the medium was supplemented with a final concentration of 2% BSA (Fraction V, fatty-acid-, nuclease and protease-free, Calbiochem). For all experiments, media were replaced every 24 hrs. Viable cell counts were obtained using CCK-8 assay described as above.

KC6141 cells = assay: NADPH/NADP measurement; assay type: cell-based, mouse; conditions: 0.5 mM glucose, 24 hrs; for NADPH to NADP ratio: KC6141 cells on ECM
Method: Extracellular Matrix (ECM) Preparation. Skin fibroblasts were seeded on 6/12/96-well plates. One day after plating, cells were switched into DMEM (with pyruvate) with 10% dialysed FBS supplemented with or without 500 μM ^3H-proline and 100 μM Vitamin C. Cells were cultured for 6 days with media renewal every 24 h. After six days, skin fibroblasts were removed by washing in 1 ml or 500 μl or 100 μl per well PBS with 0.5% (v/v) Triton X-100 and 20 mM NH4OH. ECM was washed five times with PBS before plating KC6141 cells. The following day, KC6141 cells were switched into the indicated medium for 24 or 72 hrs. NADPH/NADP Measurement. NADPH and NADP measurement was performed using NADP/NADPH-Glo™ Assays (Promega #G9081) according to manufacturer's protocol. Briefly, KC6141 cells were grown on 96-well plates coated with ECM and treated as above. Then medium was removed and replaced with 50 μl of PBS and 50 μl of base solution with 1% DTAB. The plate was briefly mixed to ensure homogeneity and cell lysis. 50 μl of each sample was removed to an empty well for acid treatment. 25 μl per well of 0.4N HCl was added into these samples. All samples were incubated for 15 minutes at 60° C. and then equilibrated for 10 minutes at room temperature. 25 μl of 0.5M Trizma® base was added into each well of acid-treated cells to neutralize the acid. 50 μl of HCl/Trizma® solution was added to each well containing base-treated samples. Then 100 μl of NADP/NADPH-Glo™ Detection Reagent was added into each well and incubated for 30 minutes at room temperature. Luminescence was recorded using a luminometer.

Row | SMILES | sensitivity to single agent (cell viability) (KC6141 mouse PDAC cells; IKKα-deficient KC6141 cells) | cell viability enhanced by extracellular matrix (ECM) (KC6141 mouse PDAC cells; WT and IKKα KD 6141 cells on ECM, 0.5 mM glucose, EIPA, IPI549 600 nM, MBQ-167 500 nM) | cell viability vs vehicle (KC6141 mouse PDAC cells) | NADPH to NADP ratio (KC6141 cells) | NADPH to NADP ratio in NRF2 ablated cells (KC6141 cells; Nrf2 KD KC6141 cells on ECM) | cell growth, single agent (KC6141 mouse PDAC cells; IKKα KD KC6141 cells, erlotinib 2 μM, MRT68921 600 nM)
1 | CCN(c1nc(N)c(C(=O)N=C(N)N)nc1Cl)C(C)C [EIPA, 5-(N-ethyl-N-isopropyl) amiloride] | very sensitive | suppressed | suppression of cell viability | reduced | ineffective | 
2 | CN1CCc2cc(Nc3ncc(C4CC4)c(NCCCNC(=O)C4CCC4)n3)ccc2C1 [MRT68921] |  |  | suppression of cell viability | further elevated |  | limited
